Experimental data taken from patent US20240156856A1, “NOVEL APPLICATIONS OF HYALURONIC ACID FOR TREATMENT OF PAIN AND PRURITIS” (THE REGENTS OF THE UNIVERSITY OF CALIFORNIA, priority 2022, published 2024).

Legend:
[1] = test system: rats with bortezomib CIPN; assay: Bortezomib CIPN mechanical hyperalgesia, Randall-Selitto paw-withdrawal test; type: in vivo, Sprague-Dawley rats; conditions: male rats; bortezomib 0.2 mg/kg i.v., 4 doses, day 7
Experimental: (§1) Experimental animals. Experiments were performed on 220-400 g male and female Sprague-Dawley rats, purchased from Charles River Laboratories (Hollister, CA, USA), housed three per cage, under a 12-hour light/dark cycle, in a temperature- and humidity-controlled animal care facility at the University of California, San Francisco. Food and water were available ad libitum. Experimental protocols were approved by the University of California, San Francisco, Institutional Animal Care and Use Committee, and adhered to the National Institutes of Health Guidelines for the care and use of laboratory animals.
(§2) Measurement of nociceptive threshold. Mechanical nociceptive threshold was quantified with an Ugo Basile Analgesymeter (Stoelting, Wood Dale, IL, USA), used to perform the Randall-Selitto paw-withdrawal test [61; 68; 69]. This device uses a dome-shaped plinth to apply a mechanical force that increases linearly with time, to the dorsum of a rat's hindpaw. To perform the Randall-Selitto paw-withdrawal test, rats were placed in cylindrical acrylic restrainers with lateral ports that allow access to the hind paw, as described previously. Rats were acclimatized to the testing procedure by placing them in restrainers for 1 h per day for 3 consecutive daily training sessions, and for 30-40 min prior to experiments.
Mechanical nociceptive threshold is defined as the force, in grams, applied by the plinth to the dorsum of the hindpaw, at which a rat withdraws its paw from the stimulus. Baseline paw-withdrawal threshold is defined as the mean of three readings taken before administration of test agents. To minimize experimenter bias, individuals conducting experiments were blinded to experimental treatments. Each experiment was performed on a different group of rats. Data are presented as mechanical nociceptive threshold, in grams (g) or percentage change from preintervention baseline. […]

[2] = test system: rats with oxaliplatin CIPN; assay: Oxaliplatin CIPN mechanical hyperalgesia, Randall-Selitto paw-withdrawal test; type: in vivo, Sprague-Dawley rats; conditions: for CIPN hyperalgesia, effect of hyaluronan molecular weight range: male rats with oxaliplatin CIPN, topical, combined with DMSO
Experimental: as §1, §2
(§3) Mechanical nociceptive threshold is defined as the force, in grams, applied by the plinth to the dorsum of the hindpaw, at which a rat withdraws its paw from the stimulus. Baseline paw-withdrawal threshold is defined as the mean of three readings taken before administration of test agents. To minimize experimenter bias, individuals conducting experiments were blinded to experimental treatments. Each experiment was performed on a different group of rats. Data are presented as mechanical nociceptive threshold, in grams (g) or percentage change from preintervention baseline.
(§4) Hyaluronans were initially dissolved in distilled water (dH2O) at a concentration of 10 μg/μL, stock solution, and further diluted by adding DMSO with three final concentrations of hyaluronan (1, 2 and 4 μg/μL), protamine or terpene; unless otherwise stated, the final concentration of DMSO was 75%. The DMSO vehicle was 75% DMSO in 0.9% saline. In one experiment, 500-1200 kDa hyaluronan was administered topically in 0.9% saline vehicle. PGE2 was dissolved in 0.9% saline at the same final concentration that we previously injected intradermally (100 ng/5 μL). In the experiments in which hyaluronan was dissolved in protamine or terpene vehicle, protamine was first dissolved in distilled water (dH2O) to a concentration of 5 μg/μ1, stock solution of hyaluronan was combined with protamine at the final concentration of 2 μg/μ1, in a volume of 3 μl, for topical administration; terpene was first dissolved in dH2O at the concentration of 2 μg/μ1, then hyaluronan was dissolved in stock solution of terpene to its final concentration of 2 μg/μ1, in a volume of 3 μl, for topical administration).
Oxaliplatin CIPN: Oxaliplatin was freshly dissolved in 0.9% saline at a concentration of 2 mg/mL just prior to its tail vein intravenous (i.v.) administration (1 mL/kg), to rats briefly anesthetized with isoflurane (2.5% in O2).
Hyaluronans (30 μL) were administered topically on the dorsum of the hind paw, dispensed from a P200 pipette (Gilson, Middleton, WI, USA) with a plastic pipette tip and then spread manually. […]
(§5) Before use, ODNs were reconstituted in nuclease-free 0.9% saline and then administered by the intrathecal (i.t.) route. As described previously, rats were anesthetized with isoflurane (2.5% in O2) and 120 μg of ODN, in a volume of 20 μL, injected i.t., using a syringe ([…]) attached to a 29-gauge hypodermic needle that was inserted into the subarachnoid space, between the L4 and L5 vertebrae. The i.t. site of the injectate was confirmed by a sudden flick of the rat's tail, a reflex evoked by subarachnoid space access and bolus i.t. injection. […]

[3] = test system: PGE2 hyperalgesia in male and female rats; assay: PGE2-induced mechanical hyperalgesia, Randall-Selitto paw-withdrawal test; type: in vivo, Sprague-Dawley rats; conditions: 100 ng intradermally, dorsum of hind paw, male and female rats
Experimental: as §1, §2, §3
Hyaluronans were initially dissolved in distilled water (dH2O) at a concentration of 10 μg/μL, stock solution, and further diluted by adding DMSO with three final concentrations of hyaluronan (1, 2 and 4 μg/μL), protamine or terpene; unless otherwise stated, the final concentration of DMSO was 75%. The DMSO vehicle was 75% DMSO in 0.9% saline. In one experiment, 500-1200 kDa hyaluronan was administered topically in 0.9% saline vehicle. PGE2 was dissolved in 0.9% saline at the same final concentration that we previously injected intradermally (100 ng/5 μL). […]

[4] = test system: rats with paclitaxel CIPN; assay: Paclitaxel CIPN mechanical hyperalgesia, Randall-Selitto paw-withdrawal test; type: in vivo, Sprague-Dawley rats; conditions: male rats; paclitaxel 1 mg/kg i.p., 4 doses, day 7
Experimental: as §1, §2, §3, §4
Paclitaxel CIPN: Paclitaxel was dissolved in Cremophor EL and ethanol (1:1) [1; 6; 20; 22] and diluted in 0.9% saline to a concentration of 1 mg/mL, just prior to its intraperitoneal (i.p.) administration (1 mg/kg, i.p.) [19; 42] to rats briefly anesthetized with isoflurane (2.5% in O2), every other day for a total of 4 doses.
Hyaluronans (30 μL) were administered topically on the dorsum of the hind paw, dispensed from a P200 pipette (Gilson, Middleton, WI, USA) with a plastic pipette tip and then spread manually.
Antisense oligodeoxynucleotides (ODNs).
as §5, with “vertebrae.” for “vertebrae. The i.t. site of the injectate was confirmed by a sudden flick of the rat's tail, a reflex evoked by subarachnoid space access and bolus i.t. injection.”

[5] = test system: 5-HT-induced scratching behavior in rats; assay: 5-HT-induced scratching (itch) behavior; type: in vivo; conditions: topical 100 μg in 50 μl 75% DMSO in water, 30 and 5 mins before 5-HT 200 μg i.d.
Experimental: Topical hyaluronan attenuates itch behavior in rats. Intradermal administration of serotonin (5-HT) elicited acute scratching behavior, using the method of Nojima and Carstens {Nojima and Carstens, 2003, #99335; PMID: 12814838}. Rats were acclimated to a testing chamber for 30 min, and then briefly anesthetized with 2% isoflurane, during which the fur over the nape of the neck was shaved, and 5-HT (200 μg in 10 μl 0.9% saline vehicle) injected with a 30 gauge needle. In the topical hyaluronan group, hyaluronan (100 μg in 50 μl 75% DMSO in water vehicle) was applied to the skin 30 mins and again 5 mins before administration of 5-HT. Rats were placed back into testing chambers and their behavior video recorded for 40 min. Number of hind paw scratches directed at the injection site were counted by watching video playback at half normal speed, and total number of scratches in 2-min intervals recorded. Rats were treated with 5-HT alone and topical hyaluronan with 5-HT, with 4 days between experimental sessions, allowing for use of paired t-tests to compare data. Data are presented as cumulative number of scratches (FIG. 9A), and as total scratches over the 40-min observation period (FIG. 9B). […] See also, FIG. 10, which includes additional data showing that topical hyaluronan attenuates 5-HT-induced scratching behavior. […] Data are presented as cumulative number of scratches.

[6] = test system: rats; conditions: previously shown; cited from earlier work

In the case of CC(C)C[C@H](NC(=O)[C@H](Cc1ccccc1)NC(=O)c1cnccn1)B(O)O [Bortezomib, bortezomib, reference compound], the “mechanical nociceptive threshold after chemotherapy” value (shortened to “mechanical nociceptive threshold”) [1] is reported as “decreased mechanical nociceptive threshold”.
For O=C1[O][Pt]2([NH][C@@H]3CCCC[C@H]3[NH]2)[O]C1=O [Oxaliplatin, oxaliplatin, reference compound], the “mechanical nociceptive threshold” value ([2]; male rats, oxaliplatin 2 mg/kg i.v., day 7) was “decreased mechanical nociceptive threshold”.
For CCCCC[C@H](O)/C=C/[C@H]1[C@H](O)CC(=O)[C@@H]1C/C=C\CCCC(=O)O [PGE2, prostaglandin E2, reference compound], the “mechanical hyperalgesia after intradermal PGE2” value [3] was “produced robust mechanical hyperalgesia”.
For CC(=O)O[C@H]1C(=O)[C@@]2(C)[C@H]([C@H](OC(=O)c3ccccc3)[C@]3(O)C[C@H](OC(=O)[C@H](O)[C@@H](NC(=O)c4ccccc4)c4ccccc4)C(C)=C1C3(C)C)[C@]1(OC(C)=O)CO[C@@H]1C[C@@H]2O [Paclitaxel, paclitaxel, reference compound], the “mechanical nociceptive threshold” value [4] was “decreased mechanical nociceptive threshold”.
For hyaluronan, the “number of 5-HT scratches over 40 min” value [5] was “significantly attenuated the number of 5-HT scratches”.
For hyaluronan [70-120 kDa hyaluronan], the “CIPN hyperalgesia, effect of hyaluronan molecular weight range” value (“CIPN hyperalgesia, effect” below) [2] was “did not attenuate CIPN hyperalgesia”.
With hyaluronan [150-300 kDa hyaluronan] the “CIPN hyperalgesia, effect” value [2] was “produced robust anti-hyperalgesia, of similar magnitude and duration”.
For hyaluronan [300-500 kDa hyaluronan], the “CIPN hyperalgesia, effect” value [2] was “produced robust anti-hyperalgesia, of similar magnitude and duration”.
In the case of hyaluronan [1500-1750 kDa hyaluronan], the “CIPN hyperalgesia, effect” value [2] is reported as “produced robust anti-hyperalgesia, of similar magnitude and duration”.
In the case of “hyaluronan [low molecular weight hyaluronan, reference compound]”, the “nociceptive effect of intradermal injection” value [6] is listed as “induced hyperalgesia”.
